This is an account of results in patent US10174401B2, “Methods for binding and precipitating gold using microbial-derived metallophores and their uses” (McMaster University, priority 2013, dated 2019).

*1 amine or outer side, *2 acyl side, *3 side chain or, on linkers, in order; H or OH if unused. Where a SMILES comes first, the peptide text is derived from it. [ ]: non-standard residue; d: D form. The star is where a group is joined. ξ: configuration not given here. NH(1-OH-2-oxopiperidin-3-yl) = O=C1C(N*)CCCN1O; ξOrn(N(OH)CHO) = NC(CCCN(O)C=O)C(=O)O; ξAsp(βξ-Me) = CC(C(=O)O)C(N)C(=O)O; X2 = C/C=C(/N[*:1])C(=O)[*:2]; X1 = CC(N)C(O)C(C)C(=O)*

The nature of series [1]: Transmission electron microscopy of delftibactin A:Au(III) complexes. To be noted: delftibactin A:AuCl3 2:1, 10 min. An excerpt:
Delftibactin A was reacted with AuCl3 with a molar ratio equal to 2:1 for ten minutes. Each separate reaction of delftibactin A with AuCl3 was examined using a Phillips CM-10 transmission electron microscopy operating at 80 kV. The whole-mount sample was absorbed and dried on a formvar-carbon coated 100-square mesh copper grid and rinsed with filter sterilized, de-ionized water to remove any salt precipitates.

Series [2] in a line: Gold-siderophore reactions (gold nanoparticle formation, gold-iron competition, LC-MS of supernatant). As to the method:
Ten microliters of the AuCl3 stock solution was aliquoted into separate 200 μL microcentrifuge tubes, followed by the addition of 10 μL of each respective siderophore or metal chelator, where water was used as a control. The reaction was monitored over time and images were taken. After 2 h, a sample of the mixture was diluted 10× and analyzed by transmission electron microscopy (TEM) (see below). The remaining sample was centrifuged at 13,000 rpm for ten minutes. A 10 μL sample of the supernatant was diluted in 90 μL of water and subsequently analyzed by LC-MS. A control of unreacted siderophore and metal chelator of the same concentration was also analyzed for comparison. […] Reactions were monitored similarly. UV-vis spectrums were obtained using a Synergy 4 microplate reader (Biotek).

Series [3] is described as follows: TEM imaging of siderophore-gold reactions. To be noted: TEM. As for the experimental part: Transmission electron microscopy imaging was performed with a JEOL JEM 1299 EX TEMSCAN transmission electron microscope (JEOL, Peabody, Mass., USA) operated at an accelerating voltage of 80 kV. Sample preparation: a 2 μL drop of a diluted (10×) siderophore-gold reaction was deposited over a formvar-coated TEM grid, and was allowed to dry under ambient conditions before being imaged. Gold nanoparticle size distribution was determined using the software, ImageJ.

The test system of series [4] is D. acidovorans ΔdelG. The experiment in a line: Gold detoxification in chronic exposure by delftibactin A (growth curves). Format: cell-based, Delftia acidovorans. As to the method: (§1) Twenty microliter reactions were set up as follows: i) water only, ii) 5 mM delftibactin A, iii) 5 mM AuCl3 iv) 5 mM FeCl3 v) 5 mM AuCl3+5 mM FeCl3 vi) 5 mM delftibactin B+5 mM AuCl3 vii) delftibactin B+5 mM AuCl3+5 mM FeCl3 viii) delftibactin B+5 mM FeCl3. Reactions were initiated by the addition of delftibactin and images were taken at time points indicated. After 2 h, reactions were serially diluted to 30 μM final concentration in ACM containing D. acidovorans ΔdelG diluted 1:1000 from an overnight culture. Optical density was monitored using a TECAN Sunrise™ microplate reader at 600 nm for 36 h. Results are a mean of three growth curves for each condition from a single representative experiment. As a second test of delftibactin protective capacity, D. acidovorans ΔdelG cells from an overnight culture were inoculated 1:1000 into 100 μL ACM in a 96-well plate containing 0 or 10 μM AuCl3, and then provided 0 or 100 μM delftibactin. Cultures were grown for 84 h at 250 rpm at 30° C. in a TECAN Sunrise™ microplate reader, measuring at 600 nm to assess growth. Results are a mean of three growth curves for each condition from a single representative experiment.

The nature of series [5]: Time course of AuCl3 precipitation by delftibactins in absence and presence of FeCl3. The note with it: equimolar 5 mM AuCl3 + 5 mM FeCl3. As to the method:
as §1

The subject of series [6] is D. acidovorans ΔdelG. Nature of the series: Gold protective comparison of delftibactin A and B (growth curves). It is filed as cell-based, Delftia acidovorans. The note with it: 125 μM AuCl3 + 125 μM delftibactin. As to the method:
Twenty microliter reactions were set up as follows: water only, 5 mM AuCl3, 5 mM AuCl3+delftibactin A, and 5 mM AuCl3+delftibactin B. Reactions were initiated with the addition of delftibactin A or B. After 2 h, reactions were serially diluted to 125 μM in ACM containing D. acidovorans ΔdelG diluted 1:1000 from an overnight culture. Optical density was monitored using a TECAN Sunrise™ microplate reader at 600 nm for 36 h. Results are a mean of three growth curves for each condition from a single representative experiment.

Series [7] has as its system D. acidovorans ΔdelG. Nature of the series: Delftibactin-mediated protection against gold toxicity (CFU after acute exposure). It is filed as cell-based, Delftia acidovorans. To be noted: exogenous purified delftibactin 30 sM, 100 μM AuCl3, 30 min. As to the method:
Cultures of D. acidovorans wild type and D. acidovorans ΔdelG were grown in deferrated ACM for 2 days at 30° C. In 96-well plates, 200 μL of wild type or mutant grown culture were incubated in the presence and absence of 100 μM AuCl3. At the same time, the mutant culture was also complemented with […] delftibactin (biological levels) in the presence of 100 μM AuCl3. After 30 minutes, cultures were serially diluted in water and plated on LB agar to determine the colony forming units of D. acidovorans after gold exposure. Results are shown as mean s.d.; n=4; Two-tailed student's t-test.

Series [8] in a line: Citrate-gold and delftibactin A-gold comparison. To be noted: room temperature, neutral pH. As to the method: Stock 10 mM solutions of sodium citrate and purified delftibactin A were mixed with and equimolar solution of AuCl3 and allowed to react at room temperature in 1.5 mL Eppendorf tubes. Photographs were taken from the initial addition of gold to 1 h exposure. Similarly, TEM experiments were performed by mixing 10 mM stock solutions of AuCl3 and either delftibactin A or sodium citrate 1:1 on a formvar-carbon coated 100-square mesh copper grid, imaging after 10 min AuCl3 exposure.

How the values of series [9] were obtained: The gold-delftibactin A interaction was determined through two separate experiments. First, AuCl3 was held constant at 2.5 mM and the interaction with delftibactin A was monitored by measuring the absorption of AuCl3 remaining in solution after precipitation by delftibactin A through comparison with a standard curve. Briefly, 2.5 mM AuCl3 was incubated with 5, 2.5, 1.25, 0.6125, 0.3063, and 0.1531 mM delftibactin A for 1 h. Solutions were filtered with a 0.22 μM Acrodisc (Pall, USA) to remove insoluble delftibactin A-gold precipitate. 100 μl of the filtered reaction was placed in a 96-well plate and the absorbance was read at 300 nm using a SpectraMax 384 Plus (Molecular Devices, USA). Absorption was compared to an AuCl3 standard curve to determine the concentration of AuCl3 remaining in solution. To monitor the amount of delftibactin A remaining in solution after reaction with gold a similar experiment was conducted. Delftibactin A (2.5 mM) was incubated with 5, 2.5, 1.25, 0.6125, 0.3063, and 0.1531 mM AuCl3 for 1 h. Solutions were filtered similar to above. Reaction mixtures were analyzed using a Waters Alliance 2695 RP-HPLC separations module, equipped with a Waters 2998 photodiode array and a Luna 5u C18 column (250×4.60 mm, Phenomenex). The mobile phase was linear from 2% acetonitrile, 98% water+5 mM (NH4)2CO3 at 2 min to 14% acetonitrile at 18 min at a flow rate of 1 mL/min. […]

Series [10] in a line: Test strip: metallophore on C18-silica TLC plate developed with gold chloride. To be noted: immobilized on C18-silica TLC slide, developed with gold chloride solution. As to the method: Pictures were taken after 10 min.
A solution containing gold chloride was used to develop the strip. Pictures were taken at the times indicated.

For the compound `C/C=C(/NC(=O)CNC(=O)C(C)NC(=O)C(NC(=O)C(C)C(O)C(C)N)C(C)C(=O)O)C(=O)NC(CCCN(O)C=O)C(=O)NC(C)C(=O)NC(CCCNC(=N)N)C(=O)NC1CCCN(O)C1=O` (stereo not drawn) [delftibactin A] (X1-[ξAsp(βξ-Me)]AG[X2][ξOrn(N(OH)CHO)]AR-{NH(1-OH-2-oxopiperidin-3-yl)}; configuration not given here), the “nature of gold precipitate by TEM” value in [1] is “abundance of colloidal gold nanoparticles and octahedral gold platelets”. In [2] (10 mM AuCl3 reacted with equimolar chelator), the “gold nanoparticle formation (visual inspection)” value is listed as “rapidly undergo a characteristic blackening”. In [2] (LC-MS, 2 hr exposure, vs unreacted control), the “concentration of metallophore after AuCl3 exposure” value was “decreased”. Further, the “reaction with gold after pre-exposure to / in presence of iron” value in series [2] (equimolar FeCl3) is recorded as “gold reducing power is reduced”. Also, the “octahedral gold particle formation” value in [3] is “also produces octahedral gold particles”. In addition, in series [4], the toxicity entry was “nontoxic”. Besides, the “protection from chronic gold toxicity” value in series [4] (exogenous addition to ΔdelG cultures, 100 μM delftibactin A + 10 μM AuCl3, 84 h) is listed as “sufficient to overcome chronic gold toxicity”. In addition, the “gold precipitation in presence of iron” value in series [5] is reported as “gold precipitation would proceed in the presence of high concentrations of iron”. In addition, the “detoxification / protection against AuCl3 toxicity” value in series [6] is on record as “more protective against AuCl3 toxicity than delftibactin B”. In addition, the “rescue of ΔdelG strain from gold toxicity” value in series [7] is listed as “rescued”. Further, the “timescale of creating gold structures from Au3+” value in series [8] is listed as “seconds”. In addition, the “solubility on complexing to gold” value in [9] was “abrupt and total loss of solubility”. Also, in [9] (2.5 mM AuCl3, end-point assays), the co-precipitation with gold result is “co-precipitate with gold from solution”. In series [10], the “darkening of test strip” value was “darkening can be seen”.
